From ChEMBL document CHEMBL3826931, “Salinomycin Hydroxamic Acids: Synthesis, Structure, and Biological Activity of Polyether Ionophore Hybrids” (ACS Med Chem Lett, 2016)
pIC50: −log10 of the molar value. Calls of active or inactive are those of the source. The calls are words filed in the database; no cut-off is given here.

How the values were obtained:
JIMT-1 [1] = assay: Reduction in aldehyde dehydrogenase levels in human JIMT1 cells at 5 to 10 uM by ALDEFLUOR assay; type: functional, cell-based
[2] = Cytotoxicity against human JIMT1 cells after 72 hrs by MTT assay; type: functional, cell-based; conditions: JIMT-1, 72 h
MCF7 = assay: Cytotoxicity against human MCF7 cells after 72 hrs by MTT assay; type: functional, cell-based; conditions: MCF7, 72 h
JIMT-1 [3] = assay: Reduction in aldehyde dehydrogenase levels in human JIMT1 cells at 0.52 uM by ALDEFLUOR assay (reference value: 30 to 60%); type: functional; set-up: scale not given: the % may be the effect or the level left
[4] = Ionophoric activity in large unilamellar POPC/POPG (3:1) vesicles assessed as relaxation of potassium coupled-proton gradient by measuring decrease in internal pH at 1 pM after 300 secs by ratiometric pH reporter pyranin based spectroscopic analysis; type: ADME; conditions: 5 min
[5] = Ionophoric activity in large unilamellar POPC/POPG (3:1) vesicles assessed as relaxation of potassium coupled-proton gradient by measuring decrease in internal pH at 100 pM after 300 secs by ratiometric pH reporter pyranin based spectroscopic analysis; type: ADME; conditions: 5 min, 0.0001 µM

For `CC[C@@H](C(=O)[C@@H](C)[C@@H](O)[C@H](C)[C@@H]1O[C@@H]([C@@H](CC)C(=O)N(C)OC)CC[C@@H]1C)[C@H]1O[C@]2(C=C[C@@H](O)[C@]3(CC[C@@](C)([C@H]4CC[C@](O)(CC)[C@H](C)O4)O3)O2)[C@H](C)C[C@@H]1C`, the Activity (JIMT-1 [1]) was “inactive”, the pIC50 [2] was 5.00 and the pIC50 (MCF7) was 5.03.
In the case of `CC[C@@H](C(=O)[C@@H](C)[C@@H](O)[C@H](C)[C@@H]1O[C@@H]([C@@H](CC)C(=O)N(C)O)CC[C@@H]1C)[C@H]1O[C@]2(C=C[C@@H](O)[C@]3(CC[C@@](C)([C@H]4CC[C@](O)(CC)[C@H](C)O4)O3)O2)[C@H](C)C[C@@H]1C`, the Activity (JIMT-1 [1]) was “inactive”, the pIC50 [2] was < 4.70 and the pIC50 (MCF7) was < 4.70.
For `CC[C@@H](C(=O)[C@@H](C)[C@@H](O)[C@H](C)[C@@H]1O[C@@H]([C@@H](CC)C(=O)NOC)CC[C@@H]1C)[C@H]1O[C@]2(C=C[C@@H](O)[C@]3(CC[C@@](C)([C@H]4CC[C@](O)(CC)[C@H](C)O4)O3)O2)[C@H](C)C[C@@H]1C`, the Activity (JIMT-1 [1]) was “inactive”, the pIC50 [2] was 4.76 and the pIC50 (MCF7) was 4.79.
Molecule `CC[C@@H](C(=O)[C@@H](C)[C@@H](O)[C@H](C)[C@@H]1O[C@@H]([C@@H](CC)C(=O)O)CC[C@@H]1C)[C@H]1O[C@]2(C=C[C@@H](O)[C@]3(CC[C@@](C)([C@H]4CC[C@](O)(CC)[C@H](C)O4)O3)O2)[C@H](C)C[C@@H]1C` [SALINOMYCIN] has an Activity (JIMT-1 [3]) of 60%, a pIC50 [2] of 6.28 and a pIC50 (MCF7) of 6.23. For the same molecule, the Activity [4] was “Active”.
In the case of `CC[C@@H](C(=O)[C@@H](C)[C@@H](O)[C@H](C)[C@@H]1O[C@@H]([C@@H](CC)C(=O)NO)CC[C@@H]1C)[C@H]1O[C@]2(C=C[C@@H](O)[C@]3(CC[C@@](C)([C@H]4CC[C@](O)(CC)[C@H](C)O4)O3)O2)[C@H](C)C[C@@H]1C`, the Activity (JIMT-1 [1]) was “inactive”, the pIC50 [2] was 5.17 and the pIC50 (MCF7) was 5.00. The Activity [5] was “Active”.
